Test results as given in ChEMBL document CHEMBL4725243, “High-Throughput Screening for the Discovery of Enzyme Inhibitors” (J Med Chem, 2020).
pIC50: −log10 of the molar value.

What was measured:
[1] = Inhibition of Mycobacterium tuberculosis kanamycin resistance enzyme Eis preincubated for 10 mins followed by AcCoA addition and measured after 5 mins at interval of 30 sec for 20 mins by UV-Vis assay
[2] = Inhibition of Mycobacterium tuberculosis kanamycin resistance enzyme Eis after 5 mins in presence of AcCoA by Ellman's reagent based assay

Row | Compound | pIC50 [1] | pIC50 [2]
1 | Cn1c2ccc(F)cc2c2nnc(SCCN3CCCCC3)nc21 | 7.52 | –
2 | O=C(C[n+]1ccn2cccc2c1-c1ccccc1)c1ccccc1 | – | 7.19
3 | Cc1ccc(C(=O)C[n+]2ccn3cccc3c2-c2ccc(F)cc2)cc1 | – | 7.10
